Patent publication US6031093A, “Solid salts of clavulanic acid” (SmithKline Beecham p.l.c., priority 1995, dated 2000)
Entries after “also recorded” stand apart in the source; their conditions may differ. Structures can show the parent of a compound that is named as a salt. Where two headings read alike, the source gives them in different places. Values belong to the compound of their own block, whether it stands above or below them.

How the values were obtained:
[1] = Hydrolysis of ester to clavulanic acid in pH 7 buffer; assay type: physicochemical; settings: buffered to pH 7 (0.05M phosphate, 37° C., 1 mg/ml, 2 hours in Example 29)
Experimental: The reaction was followed by paper chromatography (bioautographic system). Using the butanol/ethanol/water system to follow the reaction over a period of 2 hours the zone of the methyl ester at Rf 0.79 decreased in size as the zone of clavulanic acid at Rf 0.12 increased.

[2] = tested on: Enterobacter cleacea; assay: Antibacterial spectrum, microtitre method (MIC); assay type: cell-based; settings: read-out: Minimum Inhibitory Concentration
[3] = tested on: Enterohacter cloacae; assay: Antibacterial synergism, microtitre method (MIC); assay type: cell-based; settings: read-out: Minimum Inhibitory Concentration, agent alone
[4] = tested on: Staphylococcus aureus (Russell); assay: Antibacterial synergism, microtitre method (MIC); assay type: cell-based; settings: Table 6
[5] = tested on: Staphylococcus; assay: Antibacterial synergism, microtitre method (MIC); assay type: cell-based
[6] = tested on: Staphylococcus aureus (Russell); assay: Synergism of clavulanic acid methyl ester (M.I.C.); assay type: cell-based; settings: in the presence of 1.0 μg/ml. clavulanic acid methyl ester
[7] = tested on: Klebsiella acrogenes A; assay: Growth inhibition and synergism; assay type: cell-based, Klebsiella aerogenes; settings: 5 μg/ml. of clavulanic acid also present
[8] = tested on: Klebsiella aerogenes A; assay: Antibacterial synergism, microtitre method (MIC); assay type: cell-based
[9] = tested on: Klebsiella aerogenes E 70; assay: Antibacterial synergism, microtitre method (MIC); assay type: cell-based
[10] = tested on: Klebsiella aerogenes 62; assay: Antibacterial synergism, microtitre method (MIC); assay type: cell-based
[11] = target: T1, β-lactamase produced by Escherichia coli JT4 (Escherichia coli, UniProt P62593); assay: β-lactamase inhibition assay (Description 1); assay type: biochemical
T1 construct: the cell debris was removed by centrifugation and aliquots of the supernatant stored deep frozen; endogenous in cells; host or cells: Escherichia coli JT4 (R factor), ultrasonic extract

[12] = Stability in human blood; assay type: in vitro ADME
[13] = +5 μg/ml benzyl ester of clavulanic acid
[14] = +5 μg/ml methyl ester of clavulanic acid

T1 sequence (P62593 24-286 limits assumed): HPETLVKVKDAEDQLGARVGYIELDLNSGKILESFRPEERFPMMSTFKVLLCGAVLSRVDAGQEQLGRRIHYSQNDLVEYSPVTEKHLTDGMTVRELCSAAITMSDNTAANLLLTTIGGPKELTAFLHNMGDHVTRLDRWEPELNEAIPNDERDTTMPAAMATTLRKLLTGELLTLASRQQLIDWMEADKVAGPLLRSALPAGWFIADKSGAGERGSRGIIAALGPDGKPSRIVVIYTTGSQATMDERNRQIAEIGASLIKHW

Structure (SMILES): COC(=O)[C@H]1/C(=C/CO)O[C@@H]2CC(=O)N21 [clavulanic acid methyl ester]
hydrolysis of ester to clavulanic acid [1]: slowly hydrolyse to clavulanic acid; also recorded: Slow conversion of the ester to clavulanic acid

Structure (SMILES): O=C(O)[C@H]1/C(=C/CO)O[C@@H]2CC(=O)N21 [clavulanic acid sodium salt, 3-(β-hydroxyethylidine)-7-oxo-4-oxa-1-azabicyclo [3,2,0]heptane-2-carboxylic acid sodium salt]
MIC [2]: 62 µg/mL
MIC [3]: 62 µg/mL
Minimum Inhibitory Concentration, agent alone [4]: 15 µg/mL
MIC ([5]; read-out: Minimum Inhibitory Concentration, agent alone): 62 µg/mL

Structure (SMILES): O=C(Cc1cccs1)N[C@@H]1C(=O)N2C(C(=O)[O-])=C(C[n+]3ccccc3)CS[C@H]12 [cephaloridine]
M.I.C. of antibiotic in presence of synergist [6]: < 0.03 µg/mL

Structure (SMILES): CC1(C)S[C@@H]2[C@H](NC(=O)C(C(=O)O)c3ccccc3)C(=O)N2[C@H]1C(=O)O (some centres unmarked) [carbenicillin]
concentration of penicillin inhibiting growth [7]: less than 12.5 μg/ml

Structure (SMILES): CC1(C)S[C@@H]2[C@H](NC(=O)Cc3ccccc3)C(=O)N2[C@H]1C(=O)O [benzylpenicillin]
concentration of penicillin inhibiting growth [7]: less than 12.5 μg/ml

MIC of Ampicillin + 5 μg/ml of Benzyl Ester of clavulanic acid [8, 13]: 1.9 µg/mL
MIC of Ampicillin + 5 μg/ml of Methyl Ester of clavulanic acid [8, 14]: 1.9 µg/mL
MIC ([5]; alone, inoculum 0.5×10^-2, read-out: Minimum Inhibitory Concentration, agent alone): 250 µg/mL
MIC of Ampicillin + 5 μg/ml of Benzyl Ester of clavulanic acid [9, 13]: 3.9 µg/mL
MIC of Ampicillin + 5 μg/ml of Methyl Ester of clavulanic acid [9, 14]: 3.9 µg/mL
MIC of Ampicillin + 5 μg/ml of Benzyl Ester of clavulanic acid [10, 13]: 3.9 µg/mL
MIC of Ampicillin + 5 μg/ml of Methyl Ester of clavulanic acid [10, 14]: 3.9 µg/mL
Structure (SMILES): CC1(C)S[C@@H]2[C@H](NC(=O)[C@H](N)c3ccccc3)C(=O)N2[C@H]1C(=O)O [ampicillin]

Structure (SMILES): O=C(O)[C@H]1/C(=C/CO)O[C@@H]2CC(=O)N21 [clavulanic acid, Z-(2R,5R)-3-(β-hydroxyethylidene)-7-oxo-4-oxa-1-azabicyclo[3,2,0]heptane-2-carboxylic acid]
mode of β-lactamase inhibition [11]: progressively and irreversibly inhibits
stability in human blood [12]: high stability
